Measured values published in patent US10106529B2, “Compounds that modulate intracellular calcium” (CalciMedica, Inc., priority 2011, dated 2018).

Tests used:
[1] = biological target: T1, Orai1/STIM1 (Homo sapiens, UniProt Q96D31); test: Fluorescence-based assay of store-operated calcium entry in Orai1/STIM1 stable cells; format: cell-based; parameters: key to Orai1/STIM1 (IC50, μmol): A, IC50 < 0.6 μM; B, IC50 = 0.6-1.2 μM; C, IC50 > 1.2 μM; — no fit; conditions: HEK-293 cells stably expressing human STIM1 and Orai1, inhibition of Peak-Basal fluorescence signal after calcium addition; for IC50: read-out: Orai1/STIM1 (IC50, μmol)
T1 construct: c-myc (C); expressed in transfected cells; host or cells: HEK-293 cells stably expressing recombinant human STIM1 and Orai1
From the text: (§1) Fluorescence-based assays are used for screening the compounds described herein, such as compounds of Formulas (I), (IA), (II), (IIA), (III), (IIIA), (IV), (IVA), (V), (VA), (VI), (VIA), (VII), (VIIA), (VIII), (VIIIA), (IX), (IXA), (X), (XI), (XIA), (XII), or (XIIA) which modulate intracellular calcium.
A. Fluorescence-Based Assay of Store-Operated Calcium Entry in Orai1/STIM1 Stable Cells.
Cells stably expressing recombinant human STIM1 and Orai1 are generated by transfecting a human Orai1 expression plasmid (pcDNA3.1-Orai1-cmyc) into HEK-293 cells stably overexpressing human STIM1 (Roos et al. 2005 JCB 169(3): 435-445). Colonies of cells stably expressing both STIM1 and Orai1 proteins are selected and then subcloned by limiting dilution. Cells were cultured at 37° C./6% CO2 in complete medium with 10% FBS and appropriate selection markers.
The day prior to performing the assay Orai1/STIM1 stable cells are plated in 50 μL of complete medium at 90-95% confluence in a 384 well plate. Cells are grown at 37° C./6% CO2 overnight. On the day of the assay, 1.5 μM fluo-4-AM (Invitrogen) in complete medium is added to the cells, which are then incubated for 1 hour at RT. Cells are washed once in Ca^2+-free HBSS (Hank's buffered saline solution) and 35 μl of Ca^2+-free HBSS is added to each well. Test compounds are added to wells in a 10 μL Ca^2+-free HBSS solution, prepared at 4.5× the desired final concentration, and incubated for 30 minutes at RT. The initial baseline fluorescence signal is then measured with a FLIPR^384 (Molecular Devices) plate reader. Calcium entry is initiated by adding 5 μl of 10×CaCl2 (10 mM) in HBSS, and changes in cellular fluorescence are measured with the FLIPR^384 plate reader. In each well, the magnitude of the fluorescence signal as a result of calcium entry into the cell is determined by calculating the difference between the peak fluorescence signal measured after calcium addition and the initial baseline fluorescence signal (designated Peak-Basal). IC50 values are typically calculated as the concentration that inhibited 50% of the Peak-Basal signal.

[2] = system: RBL-2H3 cells; test: Fluorescence-based assay of store-operated calcium entry in RBL-2H3 cells; format: cell-based, rat; parameters: key to RBL-2H3 (IC50, μmol): A, IC50 < 0.6 μM; B, IC50 = 0.6-1.2 μM; C, IC50 > 1.2 μM; — no fit; conditions: thapsigargin, inhibition of Upslope of fluorescence after calcium addition; for IC50: Rattus norvegicus, read-out: RBL-2H3 (IC50, μmol)
Procedure: as §1
B. Fluorescence-Based Assay of Store-Operated Calcium Entry in RBL-2H3 Cells.
RBL-2H3 cells are obtained from ATCC and maintained in complete medium with 10% FBS at 37° C./6% CO2.
The day prior to performing the assay, RBL-2H3 cells are plated in 50 μL of complete medium in a 384 well plate. Cells are grown at 37° C./6% CO2 overnight and grow to 50-60% confluence by the next day. On the assay day, 1.5 µM Fluo-4-AM dye (Invitrogen) in complete medium is added and incubated for 1 hour at RT. Cells are washed twice in Ca^2+-free HBSS buffer and 35 μL Ca^2+-free HBSS buffer is added to each well. 10 μL of a test compound prepared in a Ca^2+-free HBSS solution at 4.5× of the desired concentration is added to a well and incubated for 5 minutes at RT. 10 μL of thapsigargin prepared in a Ca^2+-free HBSS solution at 5.5× of the desired concentration (5.5 uM) is added to each well and incubated for an additional 25 minutes. The initial baseline fluorescence signal is measured with a FLIPR^384 (Molecular Devices) plate reader. 5 μL of 12× calcium in HBSS (12 mM) is added and changes in cellular fluorescence are measured with the FLIPR^384 plate reader. In each well, the change in the fluorescent signal as a function of time due to calcium entry into the cell is determined by calculating the difference between the fluorescent signal measured 7 seconds after calcium addition and the initial baseline fluorescence signal at time zero (t=0). This parameter is designated Upslope. The IC50 value is calculated as the concentration at which 50% of the Upslope is inhibited.

T1 sequence (Q96D31 whole entry): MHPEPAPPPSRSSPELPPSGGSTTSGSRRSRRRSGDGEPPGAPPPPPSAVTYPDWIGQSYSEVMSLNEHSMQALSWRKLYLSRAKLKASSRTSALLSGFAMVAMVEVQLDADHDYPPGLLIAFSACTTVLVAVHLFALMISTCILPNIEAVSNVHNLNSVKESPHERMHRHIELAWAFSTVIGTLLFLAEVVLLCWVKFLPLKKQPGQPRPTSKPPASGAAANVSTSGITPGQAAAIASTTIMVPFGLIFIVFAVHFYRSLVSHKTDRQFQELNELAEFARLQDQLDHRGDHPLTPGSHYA

Row | Compound | Orai1/STIM1 (IC50, μmol) [1] | RBL-2H3 (IC50, μmol) [2] | IC50 [1] [nM] | IC50 [2] [nM]
1 | Cn1nc(C(F)(F)F)cc1-c1cnc(OCc2c(F)cccc2Cl)nc1 [Compound 69] | — | — |  | 
2 | Cc1cc2c(cc1-c1cnc(OCc3c(F)cccc3Cl)nc1)OC(F)(F)O2 [Compound 70] |  |  | > 1200 | < 600
3 | Cn1nc(C(F)(F)F)cc1-c1ccc(NC(=O)c2ccccc2F)nc1 [Compound 72, (2-fluorophenyl)-N-{5-[1-methyl-3-(trifluoromethyl)pyrazol-5-yl](2-pyridyl)}carboxamide] |  |  | < 600 | < 600
4 | Cn1nc(C(F)(F)F)cc1-c1ccc(NC(=O)c2c(F)cccc2F)nc1 [Compound 74, (2,6-difluorophenyl)-N-{5-[1-methyl-3-(trifluoromethyl)pyrazol-5-yl](2-pyridyl)}carboxamide] |  |  | 600 to 1200 | < 600
5 | Cn1nc(C(F)(F)F)cc1-c1cnc(NCc2c(F)cccc2F)cc1F [Compound 76, N-(2,6-difluorobenzyl)-4-fluoro-5-(1-methyl-3-(trifluoromethyl)-1H-pyrazol-5-yl)pyridin-2-amine] |  |  | > 1200 | 600 to 1200
6 | Cn1nc(C(F)(F)F)cc1-c1ccc(NCc2c(F)ccc(F)c2F)nc1 [Compound 78, 5-(1-methyl-3-(trifluoromethyl)-1H-pyrazol-5-yl)-N-(2,3,6-trifluorobenzyl)pyridin-2-amine] |  |  | < 600 | < 600
7 | Cn1nc(C(F)(F)F)cc1-c1ccc(NCc2ccc(F)cc2F)nc1 [Compound 80, 5-(1-methyl-3-(trifluoromethyl)-1H-pyrazol-5-yl)-N-(2,4-difluorobenzyl)pyridin-2-amine] |  |  | < 600 | < 600
8 | Cn1nc(C(F)(F)F)cc1-c1ccc(NCc2c(F)cc(F)cc2F)nc1 [Compound 82, 5-(1-methyl-3-(trifluoromethyl)-1H-pyrazol-5-yl)-N-(2,4,6-trifluorobenzyl)pyridin-2-amine] |  |  | < 600 | < 600
9 | Cn1nc(C(F)(F)F)cc1-c1ccc(NCc2c(F)cncc2F)nc1 [Compound 84, N-((3,5-difluoropyridin-4-yl)methyl)-5-(1-methyl-3-(trifluoromethyl)-1H-pyrazol-5-yl)pyridin-2-amine] |  |  | < 600 | < 600
10 | Cc1cccc(F)c1CNc1ccc(-c2cc(C(F)(F)F)nn2C)cn1 [Compound 86, N-(2-fluoro-6-methylbenzyl)-5-(1-methyl-3-(trifluoromethyl)-1H-pyrazol-5-yl)pyridin-2-amine] |  |  | < 600 | < 600
11 | Cn1nc(C(F)(F)F)cc1-c1cnc(NCc2ccccc2F)nc1 [Compound 96, N-(2-fluorobenzyl)-5-(1-methyl-3-(trifluoromethyl)-1H-pyrazol-5-yl)pyrimidin-2-amine] |  |  | < 600 | < 600
12 | Fc1cccc(F)c1CNc1ccc(-n2nc(C(F)(F)F)cc2C(F)(F)F)cn1 [Compound 100, 5-(3,5-bis(trifluoromethyl)-1H-pyrazol-1-yl)-N-(2,6-difluorobenzyl)pyridin-2-amine] |  |  | < 600 | < 600
13 | Fc1cc(F)c(CNc2ccc(-n3nc(C(F)(F)F)cc3C(F)(F)F)cn2)c(F)c1 [Compound 102, 5-(3,5-bis(trifluoromethyl)-1H-pyrazol-1-yl)-N-(2,4,6-trifluorobenzyl)pyridin-2-amine] |  |  | < 600 | < 600
14 | Cc1nc(C(F)(F)F)cn1-c1ccc(NCc2c(F)cccc2F)nc1 [Compound 106, N-(2,6-difluorobenzyl)-5-(2-methyl-4-(trifluoromethyl)-1H-imidazol-1-yl)pyridin-2-amine] |  |  | < 600 | < 600
15 | Cc1nc(C(F)(F)F)cn1-c1ccc(NCc2c(F)cc(F)cc2F)nc1 [Compound 108, 5-(2-methyl-4-(trifluoromethyl)-1H-imidazol-1-yl)-N-(2,4,6-trifluorobenzyl)pyridin-2-amine] |  |  | 600 to 1200 | < 600
16 | Cc1nc(C(F)(F)F)cn1-c1ccc(NCc2c(F)cncc2F)nc1 [Compound 110, N-((3,5-difluoropyridin-4-yl)methyl)-5-(2-methyl-4-(trifluoromethyl)-1H-imidazol-1-yl)pyridin-2-amine] | — |  |  | > 1200
17 | Cc1c(F)cccc1CNc1ccc(-n2cc(C(F)(F)F)nc2C)cn1 [Compound 112, N-(3-fluoro-2-methylbenzyl)-5-(2-methyl-4-(trifluoromethyl)-1H-imidazol-1-yl)pyridin-2-amine] | — |  |  | 600 to 1200
18 | Cc1cc(C(F)(F)F)nn1-c1ccc(NCc2c(F)cccc2F)nc1 [Compound 116, N-(2,6-difluorobenzyl)-5-(5-methyl-3-(trifluoromethyl)-1H-pyrazol-1-yl)pyridin-2-amine] |  |  | < 600 | < 600
19 | Cc1cc(C(F)(F)F)nn1-c1ccc(NCc2c(F)cc(F)cc2F)nc1 [Compound 118, 5-(5-methyl-3-(trifluoromethyl)-1H-pyrazol-1-yl)-N-(2,4,6-trifluorobenzyl)pyridin-2-amine] |  |  | < 600 | < 600
20 | COc1cc(F)c(CNc2ccc(-n3nc(C(F)(F)F)cc3C)cn2)c(F)c1 [Compound 120, N-(2,6-difluoro-4-methoxybenzyl)-5-(5-methyl-3-(trifluoromethyl)-1H-pyrazol-1-yl)pyridin-2-amine] |  |  | 600 to 1200 | < 600
21 | Cc1c(F)cccc1CNc1ccc(-n2nc(C(F)(F)F)cc2C)cn1 [Compound 122, N-(3-fluoro-2-methylbenzyl)-5-(5-methyl-3-(trifluoromethyl)-1H-pyrazol-1-yl)pyridin-2-amine] | — |  |  | < 600
22 | Cc1cc(C(F)(F)F)nn1-c1ccc(NCc2c(F)cncc2F)nc1 [Compound 124, N-((3,5-difluoropyridin-4-yl)methyl)-5-(5-methyl-3-(trifluoromethyl)-1H-pyrazol-1-yl)pyridin-2-amine] |  |  | 600 to 1200 | < 600
23 | Fc1cccc(F)c1CNc1ncc(Oc2ccccc2C(F)(F)F)cn1 [Compound 126, N-(2,6-difluorobenzyl)-5-(2-(trifluoromethyl)phenoxy)pyrimidin-2-amine] |  |  | < 600 | < 600
24 | COc1cc(F)c(CNc2ncc(-c3cc4c(cc3C)OC(F)(F)O4)cn2)c(F)c1 [Compound 127, N-(2,6-difluoro-4-methoxybenzyl)-5-(2,2-difluoro-6-methylbenzo[d][1,3]dioxol-5-yl)pyrimidin-2-amine] |  |  | < 600 | < 600
25 | COc1cc(C)c(-c2cnc(NCc3c(F)cccc3F)nc2)cn1 [Compound 128, N-(2,6-difluorobenzyl)-5-(6-methoxy-4-methylpyridin-3-yl)pyrimidin-2-amine] |  |  | < 600 | < 600
26 | Cc1cc(Cl)ncc1-c1cnc(NCc2c(F)cc(Cl)cc2F)nc1 [Compound 129, N-(4-chloro-2,6-difluorobenzyl)-5-(6-chloro-4-methylpyridin-3-yl)pyrimidin-2-amine] |  |  | < 600 | < 600
